# Data published in paper PMC12586182 (Frontiers in Oncology, 2025).
# Legend:
# Assay in all cases: Kinase panel profiling at 1 µmol/L (mobility shift assay, Carna)
# Format in all cases: biochemical
# Details in all cases: 1 µmol/L of BTK inhibitor
# [1] = molecular target: T1, AMPKα1/β1/γ1 (Homo sapiens, UniProt Q13131)
# T1 construct: purchased Carna Biosciences
# [2] = molecular target: T2, BRSK1 (Homo sapiens, UniProt Q8TDC3)
# T2 construct: purchased Carna Biosciences
# T2 sequence (Q8TDC3 1-778): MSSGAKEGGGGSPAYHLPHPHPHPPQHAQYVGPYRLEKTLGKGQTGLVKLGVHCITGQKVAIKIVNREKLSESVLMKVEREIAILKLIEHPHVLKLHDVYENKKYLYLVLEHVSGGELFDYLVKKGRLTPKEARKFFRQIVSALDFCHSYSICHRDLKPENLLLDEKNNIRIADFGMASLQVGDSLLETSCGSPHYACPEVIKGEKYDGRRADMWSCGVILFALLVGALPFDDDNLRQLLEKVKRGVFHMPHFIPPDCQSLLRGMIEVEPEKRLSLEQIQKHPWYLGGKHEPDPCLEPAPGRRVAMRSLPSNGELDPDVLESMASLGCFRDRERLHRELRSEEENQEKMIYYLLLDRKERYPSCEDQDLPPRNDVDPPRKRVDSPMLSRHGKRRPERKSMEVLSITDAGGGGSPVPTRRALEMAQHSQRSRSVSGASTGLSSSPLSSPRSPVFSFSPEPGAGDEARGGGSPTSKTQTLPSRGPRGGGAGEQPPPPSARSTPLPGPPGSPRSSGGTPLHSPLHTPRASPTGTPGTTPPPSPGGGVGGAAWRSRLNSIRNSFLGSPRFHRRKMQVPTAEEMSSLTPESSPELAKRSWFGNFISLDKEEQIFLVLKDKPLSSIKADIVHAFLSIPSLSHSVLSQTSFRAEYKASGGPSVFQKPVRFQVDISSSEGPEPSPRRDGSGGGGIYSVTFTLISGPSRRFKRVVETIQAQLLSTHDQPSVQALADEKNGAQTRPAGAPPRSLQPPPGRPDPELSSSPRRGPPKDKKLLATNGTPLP
# [3] = molecular target: T3, DYRK2 (Homo sapiens, UniProt Q92630)
# T3 construct: purchased Carna Biosciences
# T3 sequence (Q92630 1-601): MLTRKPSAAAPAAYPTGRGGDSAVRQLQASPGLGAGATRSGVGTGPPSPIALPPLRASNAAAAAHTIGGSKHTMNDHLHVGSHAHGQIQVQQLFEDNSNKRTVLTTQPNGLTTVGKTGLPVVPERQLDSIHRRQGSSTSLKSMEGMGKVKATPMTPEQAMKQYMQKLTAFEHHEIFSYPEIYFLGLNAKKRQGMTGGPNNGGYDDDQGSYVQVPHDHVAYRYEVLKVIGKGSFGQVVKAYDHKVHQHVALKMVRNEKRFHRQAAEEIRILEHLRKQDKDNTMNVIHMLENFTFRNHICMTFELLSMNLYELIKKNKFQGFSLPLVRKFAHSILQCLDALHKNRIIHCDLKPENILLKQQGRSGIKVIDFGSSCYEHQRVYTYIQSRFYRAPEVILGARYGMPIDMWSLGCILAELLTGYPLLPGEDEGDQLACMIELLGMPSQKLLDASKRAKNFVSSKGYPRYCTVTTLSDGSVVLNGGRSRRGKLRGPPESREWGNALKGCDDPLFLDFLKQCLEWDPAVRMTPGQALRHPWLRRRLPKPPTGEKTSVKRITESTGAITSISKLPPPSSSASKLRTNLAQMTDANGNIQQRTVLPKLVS
# [4] = molecular target: T4, HIPK4 (Homo sapiens, UniProt Q8NE63)
# T4 construct: purchased Carna Biosciences
# T4 sequence (Q8NE63 1-616): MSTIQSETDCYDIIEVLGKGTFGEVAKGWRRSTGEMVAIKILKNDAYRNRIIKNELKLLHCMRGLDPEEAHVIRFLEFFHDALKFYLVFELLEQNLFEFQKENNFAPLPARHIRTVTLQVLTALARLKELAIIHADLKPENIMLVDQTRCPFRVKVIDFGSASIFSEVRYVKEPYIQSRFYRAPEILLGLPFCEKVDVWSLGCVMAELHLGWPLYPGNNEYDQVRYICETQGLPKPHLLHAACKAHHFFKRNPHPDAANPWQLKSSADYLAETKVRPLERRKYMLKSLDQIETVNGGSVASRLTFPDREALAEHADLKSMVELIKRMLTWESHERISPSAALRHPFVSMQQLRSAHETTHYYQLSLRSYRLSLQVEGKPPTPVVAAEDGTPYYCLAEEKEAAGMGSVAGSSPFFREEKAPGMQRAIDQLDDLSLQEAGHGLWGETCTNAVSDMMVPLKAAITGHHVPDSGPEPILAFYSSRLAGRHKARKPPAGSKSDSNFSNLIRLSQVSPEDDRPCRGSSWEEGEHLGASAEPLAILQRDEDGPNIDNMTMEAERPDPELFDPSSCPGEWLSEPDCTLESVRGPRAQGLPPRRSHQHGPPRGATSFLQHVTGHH
# [5] = molecular target: T5, PKD3 (Homo sapiens, UniProt O94806)
# T5 construct: purchased Carna Biosciences
# T5 sequence (O94806 1-890): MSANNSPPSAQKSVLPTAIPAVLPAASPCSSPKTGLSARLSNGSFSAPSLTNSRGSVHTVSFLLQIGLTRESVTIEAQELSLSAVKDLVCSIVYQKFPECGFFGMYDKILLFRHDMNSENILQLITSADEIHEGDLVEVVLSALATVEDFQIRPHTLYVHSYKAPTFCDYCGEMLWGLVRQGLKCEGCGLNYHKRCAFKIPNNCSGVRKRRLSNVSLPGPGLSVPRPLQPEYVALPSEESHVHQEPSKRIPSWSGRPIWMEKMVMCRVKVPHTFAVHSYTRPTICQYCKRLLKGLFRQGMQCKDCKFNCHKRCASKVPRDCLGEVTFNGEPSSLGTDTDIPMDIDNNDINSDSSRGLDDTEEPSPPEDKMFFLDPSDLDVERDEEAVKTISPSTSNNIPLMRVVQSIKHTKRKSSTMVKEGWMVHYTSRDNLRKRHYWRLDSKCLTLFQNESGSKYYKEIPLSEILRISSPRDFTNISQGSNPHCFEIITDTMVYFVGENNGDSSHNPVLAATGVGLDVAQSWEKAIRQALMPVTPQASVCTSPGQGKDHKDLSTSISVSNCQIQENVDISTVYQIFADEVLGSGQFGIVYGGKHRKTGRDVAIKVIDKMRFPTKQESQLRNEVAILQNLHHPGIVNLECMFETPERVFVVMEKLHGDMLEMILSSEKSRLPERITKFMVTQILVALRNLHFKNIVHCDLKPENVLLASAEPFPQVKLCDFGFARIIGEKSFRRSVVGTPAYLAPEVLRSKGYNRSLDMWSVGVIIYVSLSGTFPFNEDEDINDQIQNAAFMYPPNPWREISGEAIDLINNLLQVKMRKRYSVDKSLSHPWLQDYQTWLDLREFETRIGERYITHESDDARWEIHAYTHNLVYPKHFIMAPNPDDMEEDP
# T1 sequence (Q13131 whole entry): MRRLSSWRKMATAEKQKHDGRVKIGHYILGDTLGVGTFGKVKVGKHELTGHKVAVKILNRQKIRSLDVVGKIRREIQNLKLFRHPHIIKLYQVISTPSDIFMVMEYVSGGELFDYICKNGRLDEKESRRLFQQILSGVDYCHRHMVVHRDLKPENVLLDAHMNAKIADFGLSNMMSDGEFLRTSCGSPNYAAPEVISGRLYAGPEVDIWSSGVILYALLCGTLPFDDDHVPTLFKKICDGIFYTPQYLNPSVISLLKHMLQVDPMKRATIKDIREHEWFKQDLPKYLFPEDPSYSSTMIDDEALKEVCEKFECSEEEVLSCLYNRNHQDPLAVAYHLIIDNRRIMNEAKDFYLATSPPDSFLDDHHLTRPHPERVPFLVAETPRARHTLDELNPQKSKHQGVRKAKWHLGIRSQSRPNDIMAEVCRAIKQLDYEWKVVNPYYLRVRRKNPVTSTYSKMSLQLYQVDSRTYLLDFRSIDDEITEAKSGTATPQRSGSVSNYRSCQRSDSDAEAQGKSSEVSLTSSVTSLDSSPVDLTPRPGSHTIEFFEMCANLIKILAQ
# T1 sequence (Q9Y478 whole entry partner): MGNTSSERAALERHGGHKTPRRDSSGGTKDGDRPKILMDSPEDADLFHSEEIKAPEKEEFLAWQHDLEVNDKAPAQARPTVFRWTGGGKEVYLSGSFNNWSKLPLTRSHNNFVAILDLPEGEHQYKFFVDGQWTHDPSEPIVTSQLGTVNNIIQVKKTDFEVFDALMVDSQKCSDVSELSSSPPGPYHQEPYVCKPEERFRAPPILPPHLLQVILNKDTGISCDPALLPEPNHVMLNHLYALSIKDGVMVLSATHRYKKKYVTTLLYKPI
# T1 sequence (P54619 whole entry partner): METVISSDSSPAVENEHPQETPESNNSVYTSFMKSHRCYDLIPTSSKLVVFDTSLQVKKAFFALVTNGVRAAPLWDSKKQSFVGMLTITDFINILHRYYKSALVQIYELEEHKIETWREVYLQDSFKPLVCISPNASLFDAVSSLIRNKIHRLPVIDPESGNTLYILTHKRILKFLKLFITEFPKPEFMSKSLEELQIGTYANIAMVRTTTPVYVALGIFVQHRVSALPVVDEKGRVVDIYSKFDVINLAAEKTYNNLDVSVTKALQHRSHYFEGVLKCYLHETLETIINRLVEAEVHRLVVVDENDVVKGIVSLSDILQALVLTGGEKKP
smiles,measurement,setting,value
CC#CC(=O)N1CCC[C@H]1c1nc(-c2ccc(C(=O)Nc3ccccn3)cc2)c2c(N)nccn12 [acalabrutinib],Percentage inhibition of kinase enzyme activity,[1],-4.92%
same,Percentage inhibition of kinase enzyme activity,[2],-1.79%
same,Percentage inhibition of kinase enzyme activity,[3],-16.01%
same,Percentage inhibition of kinase enzyme activity,[4],-9.54%
same,Percentage inhibition of kinase enzyme activity,[5],-2.07%
C=CC(=O)N1CCC[C@@H](n2nc(-c3ccc(Oc4ccccc4)cc3)c3c(N)ncnc32)C1 [ibrutinib],Percentage inhibition of kinase enzyme activity,[2],-7.32%
same,Percentage inhibition of kinase enzyme activity,[3],-1.83%
same,Percentage inhibition of kinase enzyme activity,[4],2.60%
same,Percentage inhibition of kinase enzyme activity,[5],5.48%
O=C(c1ccc(Oc2ccccc2)cc1Cl)c1c[nH]c2ncnc(N[C@@H]3CC[C@@H](CO)OC3)c12 [nemtabrutinib],Percentage inhibition of kinase enzyme activity,[1],12.21%
same,Percentage inhibition of kinase enzyme activity,[2],12.83%
same,Percentage inhibition of kinase enzyme activity,[3],-2.66%
same,Percentage inhibition of kinase enzyme activity,[4],13.77%
same,Percentage inhibition of kinase enzyme activity,[5],16.29%
COc1ccc(F)cc1C(=O)NCc1ccc(-c2nn([C@@H](C)C(F)(F)F)c(N)c2C(N)=O)cc1 [pirtobrutinib],Percentage inhibition of kinase enzyme activity,[1],-7.93%
same,Percentage inhibition of kinase enzyme activity,[2],3.44%
same,Percentage inhibition of kinase enzyme activity,[3],-4.14%
same,Percentage inhibition of kinase enzyme activity,[4],2.58%
same,Percentage inhibition of kinase enzyme activity,[5],2.18%
